Assay results taken from patent US10882826B2, “Quinolinone or quinazolinone comprising antibiofilm compositions, compounds and methods and uses relating thereto” (University College Cork—National University of Ireland, priority 2015, dated 2021).

Columns and labels:
[1] = system: A. fumigatus Af293 biofilm; assay: A. fumigatus biofilm assay (crystal violet); type: cell-based, Aspergillus fumigatus
Method: A. fumigatus Af293 was routinely grown on Sabouraud dextrose agar (SDA) in 100 ml cell culture flasks at 37° C. for 3-4 days until a lawn of fungal growth was observed.
A. fumigatus Af293 was grown on SDA in 100 ml cell culture flasks at 37° C. for 3-4 days. Conidia were harvested by flooding the surface of the agar plates with 5 ml PBS (Oxoid) containing 0.025% (v/v) Tween 20 and gently moving the liquid over the surface of the fungal lawn. The conidial suspension was transferred into a 25 ml sterile container and conidia were counted using a Neubauer haemocytometer and light microscope. Conidia were adjusted to the required concentration in RPMI 1640 (Sigma) buffered to pH 7.0 with 0.165 M MOPS immediately prior to biofilm formation analysis.
To assess biofilm formation, counted A. fumigatus spores (1×10^5) in MOPS buffered RPMI 1640 were inoculated into 24- and 96-well plates and grown overnight in the presence of 100 μM HHQ, PQS and the test compounds. After 24 hrs, the media was removed and the biofilm washed twice with distilled water after which 0.1% crystal violet (CV) was added to each well and allowed to stand for 1 hr at room temperature. The crystal violet was removed and all wells washed in a water bath by inversion. Ethanol was added to each well to solubilise biofilms after which samples were read on a spectrophotometer at Abs595 nm.

mammalian cells = assay: Cytotoxicity towards mammalian cells (summary statement); type: cell-based
Method: Lactate dehydrogenase (LDH) release from IB3 lung epithelial cells was assayed as a measure of cytotoxicity using an LDH colorimetric kit (Roche) according to manufacturers' instructions. Briefly, IB3-1 cells were seeded onto 96 well plates and treated with methanol (control) and test compounds (100 μM). Following 16 hr incubation at 37° C. and 5% CO2, supernatants were removed and added to catalyst reaction mixture in a fresh plate and further incubated at 37° C. and 5% CO2 for 30 mins to allow for colour development. After this period, the plate was analysed on an ELISA plate reader at OD490 nm. Cytotoxicity was expressed as a percentage of cells treated with 0.1% (v/v) Triton (100% cytotoxicity). The results are detailed in table 3:
The above experiments were repeated, testing some compounds against further cell lines (A549, DU145 and HeLa).

Pseudomonus aeruginosa = assay: Virulence of Pseudomonas aeruginosa (summary statement); type: cell-based; settings: unlike HHQ and PQS
Method: The virulence of compounds B1, B2, C2, C3, C4, C5, C6, C8 and C11 towards P. aeruginosa was assessed using the following method:
P. aeruginosa strains were cultured as described above for 24 hr, with the addition of test compounds (10 μM). Cultures were centrifuged at 4000 rpm for 10 minutes and the cell free supernatant (5 ml) removed. Chloroform (3 ml) was added, and mixed by vortex. After centrifugation at 4000 rpm for 5 mins, the lower aqueous phase was transferred to 0.2 M HCl (2 ml). Samples were mixed by vortex and centrifuged at 4000 rpm for 5 mins to separate the phases. An aliquot of the top phase (1 ml) was removed and spectrophotmetrically analysed at OD570 nm. Phenazine production was calculated using the following formula: OD570 nm×2×17.072 and the units expressed in μg/ml. […]

In the case of `CCCCCCCc1cc(=O)c2cc(CCCCCC)ccc2[nH]1` [Compound C7], the “Relative absorbance at 595 nm compared to methanol control, Mean” value ([1]; A. fumigatus Af293 biofilm, 100 μM, 24 hrs, crystal violet) is reported as 0.27, the “effectiveness against fungal biofilms formed by Aspergillus fumigatus (in words)” value ([1]; summary statement) is reported as “effective” and the “cytotoxicity towards mammalian cells (in words)” value (mammalian cells) is reported as “reduced cytotoxicity”. For the same molecule, the “effect on virulence of Pseudomonus aeruginosa (in words)” value (Pseudomonus aeruginosa) was “do not increase the virulence”.
